Several values for one entry are separate records, joined by “and”; a condition that tells them apart may be missing. Equal entries are not always repeated.
What was measured:
Assay type in all cases: binding
DCAF11 [1] = biological target: T1, DCAF11 (Homo sapiens, UniProt Q8TEB1); assay: Affinity-based enrichment (biotin-streptavidin pulldown) in Hep G2 cells overexpressing HA-DCAF11; set-up: host or cells: Hep G2; details: Hep G2 cells overexpressing HA-DCAF11; 10 μM probe, 2 h
Description: Hep G2 cells (1 × 10^6 cells/well) were seeded in 6-well plates and incubated for 24 h. On the next day, the cells were transfected with 1 µg pCMV3-N-HA-DCAF11 plasmid (Sino Biological, HG16257-NY) or 1 µg empty vector (pcDNA3.1(+), Thermo Fisher, V79020) and 2.5 µL FuGENE® HD transfection reagent (Promega, E2311) per well. The cells were incubated for 48 h prior to treatment with 100 μM compound 2 for 1 h. […] The cells were washed with ice-cold PBS, then lysed in lysis buffer (150 mM sodium chloride, 1% NP-40, 50 mM TRIS-HCl, pH 8.0 with complete protease inhibitor cocktail (Roche, 11836170001)) for 30 min on ice. After centrifugation at 16,000 x g, the supernatant was transferred into a new tube and the protein concentration was determined using the DC protein assay (BIO-RAD, 5000116).
The supernatant was discarded and 1 mg of lysate in 500 µL lysis buffer was added to the beads and incubated for 1 h at room temperature with overhead rotation. The beads were washed twice with 500 µL washing buffer (50 mM PIPES (pH 7.4), 50 mM NaCl, 75 mM MgCl2, 5 mM EGTA, 0.1% NP-40, 0.1% Triton X-100, 0.1% Tween20) and twice with PBS for 10 min each at room temperature with overhead rotation. Enriched proteins were eluted by boiling of the beads at 95 °C for 5 min in 20 µL of a supersaturated (25 mM) biotin solution and visualized by Western Blotting as described above.

LC3B [2] = biological target: T2, LC3B (Homo sapiens, UniProt Q9GZQ8); assay: Fluorescence polarization with LC3B protein; set-up: His (N); made in house; host or cells: E. coli BL21DE3 RIL; details: for Fluorescence Polarization (mP): probe 18 at 100 µM
Description: The LC3B open reading frame was cloned into pOPINE-NHis by the Dortmund protein Facility (DPF). pOPINE-NHis-LC3B was transformed into BL21DE3 RIL K+. Cells were cultured in TB medium supplemented with ampicillin and chloramphenicol (Amp/Cam), 1% glucose and 2 mM MgSO4. A 10 L culture was incubated in TB/Amp with 0.01 % lactose monohydrate, 2 mM MgSO4 for 4 h at 37 °C followed by overnight incubation at 20 °C. Cells were lysed using sonication in a buffer containing 50 mM HEPES (pH 7.5), 300 mM NaCl, 10 mM imidazole, 1 mM 2-mercaptoethanol, 1 mM PMSF and DNase. Upon centrifugation, the supernatant was applied onto Ni NTA column. The column was washed using 50 mM HEPES (pH 7.5), 300 mM NaCl, 30 mM imidazole, 1 mM 2-mercaptoethanol. The protein was eluted in 50 mM HEPES pH 7.5, 300 mM NaCl, 300 mM imidazole, 1 mM 2-mercaptoethanol prior to size exclusion chromatography using 26/60 G75 column and 25 mM HEPES pH 7.5, 150 mM NaCl and1 mM DTE.
The assay was performed in black, 384 well plates with a total volume of 20 µl per well using a buffer solution comprising 50 mM Tris, 300 mM NaCl and 1 mM 2-mercaptoethanol, pH 7.5. The BODIPY labelled compound 18 was tested at a final concentration of 100 µM, and the LC3B protein was titrated in two-fold dilution series. The plates were incubated at 20°C for 30 min, and fluorescence polarization was measured using a Tecan Spark plate reader at ex/em 502 / 511 nm.

DCAF11 [3] = biological target: T1, DCAF11; assay: In-gel fluorescence labelling of purified DCAF11; details: 40 min; in-gel fluorescence
Description: Purified DCAF11 protein (1 μg, Origene, TP760719) was diluted in PBS buffer that is mixed with compound 2 or BODIPY derivative 18 at the indicated concentration at room temperature. Samples were diluted with 5 × SDS sample loading buffer and heated at 95 °C for 5 min. Proteins were separated using SDS-PAGE and were visualized using the ChemiDoc MP Imaging System (BIO-RAD) at 488 nm and the results were analyzed by Image Lab (BIORAD).

LC3B [4] = biological target: T2, LC3B; assay: Thermal shift assay with LC3B; details: 15 µM LC3B; 60 µM compound; Glo-Melt dye
Description: For thermal shift analysis, 15 µM of human LC3B was dispensed into 384-well plates (Hard-Shell 384-well 480 PCR plates, BioRAD #HSR4805) in buffer (50 mM Tris/HCl pH 7.4, 100 mM NaCl, 1 mM GSH and 0.02% CHAPS) with a Certus Flex liquid dispenser (Gyger). 60 µM compounds in DMSO (n4 or DMSO (0.6%) as control were added with an Echo 520 acoustic liquid handler (Labcyte). Glo-Melt dye was added (final concentration: 1/100), plates sealed with Lightcycler 480 Sealing Foils (Roche, #04 729 757 001) and mixed by short centrifugation (1 min, 60 g and room temeprature). A Lightcycler 480 II (Roche) was used for thermal shift curves with a temperature gradient from 20 to 95 °C according to the manufacturer´s protocol. Protein melting curves were analyzed, and the difference in meting temperature (ΔTm) was calculated with LightCycler Thermal Shift Analysis software (ROCHE) and visualized by Graphpad Prism (Version 9.5.1).

T1 sequence (Q8TEB1 whole entry): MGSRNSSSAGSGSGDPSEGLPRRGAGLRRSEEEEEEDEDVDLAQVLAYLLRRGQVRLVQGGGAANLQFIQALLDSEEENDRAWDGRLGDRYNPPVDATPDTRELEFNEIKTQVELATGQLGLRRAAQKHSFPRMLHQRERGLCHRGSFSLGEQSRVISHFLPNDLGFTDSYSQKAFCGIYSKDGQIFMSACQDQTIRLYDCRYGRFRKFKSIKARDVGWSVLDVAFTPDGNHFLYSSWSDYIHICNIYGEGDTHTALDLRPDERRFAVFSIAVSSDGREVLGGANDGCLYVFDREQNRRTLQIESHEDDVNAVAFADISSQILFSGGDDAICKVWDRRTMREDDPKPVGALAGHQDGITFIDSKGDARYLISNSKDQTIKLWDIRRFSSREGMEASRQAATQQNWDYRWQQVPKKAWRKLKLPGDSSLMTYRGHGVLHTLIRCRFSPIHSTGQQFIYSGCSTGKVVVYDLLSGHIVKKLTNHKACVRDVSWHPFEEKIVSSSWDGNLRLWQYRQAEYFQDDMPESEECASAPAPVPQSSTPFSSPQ

O=C(CCCCC1SC[C@@H]2NC(=O)N[C@H]12)NCCOc1c(Br)cc(/C=C2\C(=O)Nc3ccc(Br)cc32)cc1Br (stereo partly shown) [Compound 14]
enrichment of DCAF11 by pulldown (DCAF11 [1]): enriched DCAF11 protein

Cc1cc(C)n2c1C=C1C=CC(CCC(=O)NCCOCCOCCOCCOc3c(Br)cc(C=C4C(=O)Nc5ccc(Br)cc54)cc3Br)=[N+]1[B-]2(F)F [Compound 18]
binding to LC3B in fluorescence polarization (LC3B [2]; 18 at 100 µM, LC3B titrated): failed to bind | Fluorescence Polarization (mP) (LC3B [2]; LC3B protein concentration 0.00610352 µM): 132 mP and 130 mP and 100 mP and 97 mP | Fluorescence Polarization (mP) (LC3B [2]; LC3B protein concentration 0.012207 µM): 127 mP and 128 mP and 102 mP and 96 mP | Fluorescence Polarization (mP) (LC3B [2]; LC3B protein concentration 0.0244141 µM): 129 mP and 121 mP and 108 mP and 110 mP | Fluorescence Polarization (mP) (LC3B [2]; LC3B protein concentration 0.0488281 µM): 132 mP and 133 mP and 107 mP and 105 mP | Fluorescence Polarization (mP) (LC3B [2]; LC3B protein concentration 0.0976562 µM): 127 mP and 130 mP and 115 mP and 111 mP | Fluorescence Polarization (mP) (LC3B [2]; LC3B protein concentration 0.195312 µM): 131 mP and 136 mP and 106 mP and 103 mP | Fluorescence Polarization (mP) (LC3B [2]; LC3B protein concentration 0.390625 µM): 133 mP and 127 mP and 116 mP and 109 mP | Fluorescence Polarization (mP) (LC3B [2]; LC3B protein concentration 0.78125 µM): 135 mP and 112 mP and 108 mP | Fluorescence Polarization (mP) (LC3B [2]; LC3B protein concentration 1.5625 µM): 138 mP and 134 mP and 112 mP and 113 mP | Fluorescence Polarization (mP) (LC3B [2]; LC3B protein concentration 3.125 µM): 132 mP and 138 mP and 112 mP and 108 mP | Fluorescence Polarization (mP) (LC3B [2]; LC3B protein concentration 6.25 µM): 132 mP and 131 mP and 113 mP and 111 mP | Fluorescence Polarization (mP) (LC3B [2]; LC3B protein concentration 12.5 µM): 108 mP and 101 mP and 138 mP and 135 mP | Fluorescence Polarization (mP) (LC3B [2]; LC3B protein concentration 25 µM): 110 mP and 132 mP and 130 mP | Fluorescence Polarization (mP) (LC3B [2]; LC3B protein concentration 50 µM): 107 mP and 101 mP and 132 mP and 133 mP | Fluorescence Polarization (mP) (LC3B [2]; LC3B protein concentration 100 µM): 102 mP and 138 mP and 134 mP | binding (fluorescence labelling) to purified DCAF11 (DCAF11 [3]): binds to purified DCAF11 in a concentration-dependent manner

DC-LC3in-D5 [reference compound]
change of melting temperature of LC3B (ΔTm) (LC3B [4]): 13 °C

Source: publication PMC10689823, “Discovery of a Drug-like, Natural Product-Inspired DCAF11 Ligand Chemotype” (Nature Communications, 2023)
